“Also recorded” adds a separate entry of the source.

Results on 1 sequence are retold here after patent US20090118194A1, “Measurement of melanocortin peptides and uses thereof” (Auckland UniServices Limited, priority 2002, published 2009).

The subject of experiment [1] is hypothalamic proteins. As to the kind of experiment: Hypothalamic proteome analysis after i.c.v. injection. In kind it is in vivo, rat. Here is the method:
Alpha-MSH and desacetyl-α-MSH both couple melanocortin receptors to either adenylyl cyclase or calcium-signalling pathways in vitro. To characterise the signal transduction pathways engaged by α-MSH and desacetyl-α-MSH in vivo, rats received an intracerebroventricular (i.c.v.) injection of either phosphate buffered saline (PBS), α-MSH or desacetyl-α-MSH. Three hours later, food intake was measured and hypothalamic tissues were collected for 2D gel electrophoresis-based proteome analysis.
(§1) Adult male Wistar rats (50-60 days old, 230-260 g at the beginning of the experiment) were maintained in individual cages under controlled temperature (23° C.) and reverse lighting (1000-2200 lights off). Standard laboratory chow (NZ Stockfeed Ltd) and tap water were available ad libitum during the adaptation phase. During this time animals were handled daily to minimize the effects of stress on food intake during experiments. Body weight was measured daily before, and one week after cannulation. Any animal showing signs of illness, such as weight loss, poor grooming, or decreased activity, was removed from the study. All animal procedures undertaken were approved by the Animal Ethics Committee of the University of Auckland.
(§2) After 7 days of adaptation, animals were subject to cannula placement surgery under 3% halothane/O2 anaesthesia. A permanent lateral ventricle infusion cannula (6-mm 21 gauge) was placed on top of the dura at 7.5 mm anterior from stereotaxic zero, 1.5 mm to the right of the mid-sagittal line, and secured to the skull with dental cement. Animals were allowed at least 7 days to recover from surgery before injections.
(§3) Rats were fasted overnight before the day of experiment.
Under 3% halothane/O2 anaethesia rats were infused icv through a 12-mm 27-gauge needle, connected to 20-cm length tubing attached to a syringe. Infusions were performed in the early dark phase between 1000 and 1130 hr using motor driven infusion pumps at a rate of 1.0 μl/min over 10 min. Movement of a 0.2 ml air-space introduced between the 0.9% saline solution filling the PE10 tubing-syringe system and the test solution served as an indicator of a successful infusion. At the end of each experiment animals were euthanised by pentobarbital overdose, and cannula placement was confirmed by visual inspection of the cannula tip location within the brain ventricular system.
Only one of these proteins was common to α-MSH and desacetyl-α-MSH. A combination of Reverse-phase HPLC followed by Edman protein sequencing, and peptide mass fingerprinting technique using MALDI-TOF mass spectrometry were used to identify the proteins of interest. The proteomic data provide a snap-shot of the protein expression patterns in the hypothalamus 3 hours post i.c.v. administration of the melanocortin peptides.

For experiment [2], the system named is primary rat osteoblasts. Kind of experiment: Primary rat osteoblast proliferation assay ([3H]thymidine incorporation, cell number). In kind it is cell-based. From the text: Primary rat osteoblasts were isolated from 20 day fetal rat calvariae. (The use of animals for these studies was approved by the Auckland Animal Ethics Committee.) Calvariae were excised and the frontal and parietal bones, free of suture and periosteal tissue, were collected and sequentially digested using collagenase as previously described (Cornish J, Callon K E, Lin C Q X, Xiao C L, Mulvey T B, Cooper G J S, Reid I R Trifluoroacetate, a contaminant in puritied proteins, inhibits proliferation of osteoblasts and chondrocytes. Amer J Physiol Endocrinol Metab 277: E779-E783, 1999). Primary rat osteoblasts were grown in DMEM supplemented with 10% FCS, 50 U/ml penicillin and 50 μg/ml streptomycin. After 48 hour, the medium was changed to MEM. Confluence was reached within 5-6 days, at which time the cells were subcultured into 10 cm culture plates for RNA preparation or 24 well plates for proliferation assays.
Primary rat osteoblasts were subcultured into 24 well plates at a density of 5×10^4 cells/ml/well in MEM, 5% FCS for 24 hours. Cells were growth arrested in MEM, 0.1% bovine serum albumin (BSA) for 24 hour and then fresh media and experimental compounds were added for a further 24 hours. Cells were pulsed with [^3H]thymidine (0.5 μCi/well) 2 hours before the end of the experimental incubation. The experiment was terminated and both cell numbers and thymidine incorporation were assessed. Cell numbers were analysed by detaching cells from the wells by exposure to trypsin/EDTA (0.05%/0.53 mM) for approximately 5 minutes at 37° C. Counting was performed in a hemocytometer chamber. Results are expressed per well. [^3H]Thymidine incorporation was analysed by washing the cells in MEM followed by the addition of 10% trichloroacetic acid. The precipitate was washed twice with ethnol:ether (3:1) and the wells desiccated at room temperature. The residue was dissolved in 2M KOH at 55° C. for 30 minutes, neutralized with 1M HCl, and an aliquot counted for radioactivity. Results are expressed as dpm per well. Each experiment was performed at least three times using experimental groups consisting of at least six wells.
Data are presented as mean±SEM. The significance of differences between groups was determined using Student's t tests for unpaired data and a 5% significance level. The comparisons to be made in each experiment were specified a priori, so no adjustment for multiple comparisons was necessary. Where several experiments have been shown in one figure, the data are expressed as the ratio of results in treatment groups to those in the control group and the ‘P’ values shown were calculated using the data from the individual experiments, before the data were pooled.
In general terms: Incorporation of labelled thymidine or its analogues reports DNA synthesis.

Experiment [3] has as its system food deprived Wistar rats. Kind of experiment: Food intake after i.c.v. injection of melanocortin peptides. The class given is in vivo, rat. The method, then:
as §1, §2, §3
Under 3% halothane/O2 anaethesia rats were infused icv through a 12-mm 27-gauge needle, connected to 20-cm length tubing attached to a syringe. Infusions were performed in the early dark phase between 1000 and 1130 hr using motor driven infusion pumps at a rate of 1.0 μl/min over 10 min. Movement of a 0.2 ml air-space introduced between the 0.9% saline solution filling the PE10 tubing-syringe system and the test solution served as an indicator of a successful infusion. […]
Following infusion, the cannula was left in place for 1 min, removed, and the animal returned to its cage with fresh pre-weighed food and water. At 3 h post-injection, the pellets and collected food spillage in the cage, were weighed and this weight was subtracted from the initial weight to quantify the amount of food eaten over 3 h.
The significance of treatment effects was evaluated using one-way ANOVA (Systat10 package)

[4] abbreviates: hypothalamus, 3 h after i.c.v. injection, rats.

Turning to “SYSMEHFRWGKPV [desacetyl-α-MSH, non-acetylated form of α-MSH, obtained from Bachem]”, the “number of hypothalamic proteins with expression significantly different from PBS” value in experiment [1] (3 hours post i.c.v., p<0.05) was determined as 20. In experiment [1] (setting [4]), the “Cu/Zn superoxide dismutase (p1347), effect compared to control” value is 1.4 fold decrease; the “Protein disulfide isomerase (p261), effect compared to control” value amounted to 1.4 fold decrease; the “gamma-enolase (p1438), effect compared to control” value was 1.7 fold decrease; the “glyceraldehyde-3-phosphate-dehydrogenase (p1210), effect compared to control” value turned out to be 1.4 fold decrease. Moreover, in experiment [1] (setting [4]), the “phosphatidylethanolamine binding protein (p1267), effect compared to control” value came to 2.5 fold decrease and the “triosephosphate isomerase (p1521), effect compared to control” value was 1.4 fold decrease. In addition, the “antagonism of α-MSH stimulated [3H] thymidine uptake” value in experiment [2] (10^−7 M against α-MSH 10^−8 M and 10^−7 M, growth arrested primary rat osteoblasts) is “inhibited two doses of α-MSH (10^−8 M and 10^−7 M) from stimulating [^3H] thymidine uptake; also recorded: antagonise α-MSH stimulated stimulation of thymidine incorporation”. In addition, the osteoblast proliferation result in experiment [2] (10^−7 M and 10^−8 M, alone) was “no significant effect on osteoblast proliferation in two out of three experiments”. Besides, the “thymidine incorporation or cell numbers (proliferation)” value in experiment [2] (growth arrested primary rat osteoblasts, 10^−7 M, alone) was “did not stimulate thymidine incorporation or cells numbers”. For the same sequence, in experiment [3] (10 μg i.c.v., first study), the “effect on food intake over 3 h vs PBS” value is “not significantly different from the PBS treated control group”. The “effect on food intake over 3 h vs PBS” value in experiment [3] (10 μg i.c.v., first study, listed as Desacetyl-α-MSH) is “no significant effect on feeding”. Further, the “effect on food intake over 3 h vs PBS” value in experiment [3] (50 μg i.c.v., second study) is listed as “significantly reduce food intake; also recorded: significantly decreased food intake”.
